Where “and” joins values, the source holds several entries; their conditions need not be identical. Equal entries are not always repeated.
Test: Pilot clinical trial of Lipitor-Liprimar: serum lipids in human volunteers
Assay type: in vivo
Parameters: TG / CH-HDL / CH, mean / TG, mean / CH-LDL, mean / CH-HDL, mean: unit not given here
Protocol: Ten volunteers, 5 males and 5 females, aged 45-55 years old, were selected for this pilot clinical trial. 40 mg of Lipitor-Liprimar was given orally, with food, to each patient daily for two months.
Serum samples were collected from the blood of the patients before the treatment and after two months of treatment.

[1] = Lipitor 40 mg daily, two months
[2] = individual patients, Lipitor 40 mg daily, orally, after 2 months of treatment
[3] = mean of 10 patients, Lipitor 40 mg daily, orally, after 2 months of treatment

CC(C)c1c(C(=O)Nc2ccccc2)c(-c2ccccc2)c(-c2ccc(F)cc2)n1CC[C@@H](O)C[C@@H](O)CC(=O)O [Lipitor, Atorvastatin]
total cholesterol (CH) reduction [1]: 17% | triglyceride (TG) reduction [1]: 22% | CH-LDL reduction (Lipitor-Liprimar 40 mg daily, two months): 35% | CH [2]: 200 mg/dL (2×) and 140 mg/dL and 176 mg/dL and 188 mg/dL and 197 mg/dL and 170 mg/dL and 184 mg/dL and 209 mg/dL and 154 mg/dL | CH-HDL [2]: 38 and 42 (3×) and 47 (2×) and 39 and 43 (2×) and 49 | CH-LDL [2]: 120 mg/dL (2×) and 145 mg/dL and 110 mg/dL (2×) and 146 mg/dL and 140 mg/dL and 100 mg/dL and 130 mg/dL (2×) | TG [2]: 120 and 136 and 99 and 98 and 87 and 90 and 133 and 105 and 172 and 96 | CH, mean [3]: 182 | CH-HDL, mean [3]: 43 | CH-LDL, mean [3]: 100 | TG, mean [3]: 113

— US20120316249A1, “LYCOPENE FOR THE TREATMENT FOR METABOLIC DYSFUNCTION” (Cammedica limited, priority 2006, published 2012)
